The record followed here is ChEMBL document CHEMBL1134146, “Development of specific CXCR4 inhibitors possessing high selectivity indexes as well as complete stability in serum based on an anti-HIV peptide T140” (Bioorg Med Chem Lett, 2001).

pEC50: −log10 of the molar value.

A short description of experiment [1]: Selectivity index determined for CC50 (test I) to EC50 x 10e3. In kind it is functional.
Experiment [2] can be described thus: Selectivity index determined for CC50 (test II) to EC50 x 10e3. In kind it is functional.
Experiment [3] deals with MT4. The experiment in a line: Cytotoxic concentration of compound required to reduce the viability of mock infected MT-4 cells on the MTT assay by testI. In kind it is functional. The settings on record: Homo sapiens. In general terms: Tetrazolium assays rely on reduction of a dye to a coloured formazan, in cell work by metabolically active cells.
In the next experiment the test system is PBMC (Homo sapiens). The experiment in a line: Cytotoxic concentration of compound determined by the […] exclusion staining method in PBMC by test II.
Experiment [4] deals with MT4. The experiment can be described thus: Cytotoxic concentration of compound required to reduce the viability of mock infected MT-4 cells on the MTT assay in test I. In kind it is functional. The settings on record: Homo sapiens.
For experiment [5], the system named is Human immunodeficiency virus 1. The experiment in a line: Effective concentration for 50% protection of HIV-induced cytopathogenicity in MT-4 cells on the MTT assay (ZIDOVUDINE control). In kind it is functional, organism-based. The settings on record: Human immunodeficiency virus 1, MT4. Background: Damage to the host cells serves as the signal in cytopathic effect assays.

Experiment [6] is described as follows: Selectivity index determined for CC50 (test I) / EC50 x 10e3. In kind it is functional.
The nature of experiment [7]: Selectivity index determined for CC50 (test II) / EC50 x 10e3. In kind it is functional.

For orientation: CC50 means the concentration giving 50% cytotoxicity. What is called pEC50 is the EC50 on a negative log10 scale, so that one unit is a factor of ten.

With `NCCCC[C@@H]1NC(=O)[C@@H](CCCCN)NC(=O)[C@H](CCCNC(N)=O)NC(=O)[C@@H](Cc2ccc(O)cc2)NC(=O)[C@H](NC(=O)[C@@H](NC(=O)[C@H](CCCN=C(N)N)NC(=O)[C@@H](N)CCCN=C(N)N)c2ccc3ccccc3c2)CSSC[C@H](C(=O)N[C@@H](CCCN=C(N)N)C(=O)O)NC(=O)[C@H](CCCNC(N)=O)NC(=O)[C@H](CCCNC(N)=O)NC(=O)[C@H](Cc2ccc(O)cc2)NC(=O)[C@H]2CCCN2C1=O`, the SI is over 11 in experiment [1] and over 90 in experiment [2].
Consider `NCCCC[C@H]1NC(=O)[C@H](CCCN=C(N)N)NC(=O)[C@@H](Cc2ccc(O)cc2)NC(=O)[C@H](NC(=O)[C@@H](NC(=O)[C@H](CCCN=C(N)N)NC(=O)[C@@H](N)CCCN=C(N)N)c2ccc3ccccc3c2)CSSC[C@H](C(=O)N[C@@H](CCCN=C(N)N)C(=O)O)NC(=O)[C@H](CCCNC(N)=O)NC(=O)[C@H](CCCNC(N)=O)NC(=O)[C@H](Cc2ccc(O)cc2)NC(=O)[C@H]2CCCN2C(=O)[C@H](CCCNC(N)=O)NC1=O`, for which the SI in experiment [1] is over 13; in experiment [2], over 100.
The matching figures for `NCCCC[C@@H]1NC(=O)[C@@H](CCCCN)NC(=O)[C@H](CCCN=C(N)N)NC(=O)[C@@H](Cc2ccc(O)cc2)NC(=O)[C@H](NC(=O)[C@@H](NC(=O)[C@H](CCCN=C(N)N)NC(=O)[C@@H](N)CCCNC(N)=O)c2ccc3ccccc3c2)CSSC[C@H](C(=O)N[C@@H](CCCN=C(N)N)C(=O)O)NC(=O)[C@H](CCCNC(N)=O)NC(=O)[C@H](CCCNC(N)=O)NC(=O)[C@H](Cc2ccc(O)cc2)NC(=O)[C@H]2CCCN2C1=O`: over 1.5 and over 12.
Consider `NCCCC[C@H]1NC(=O)[C@H](CCCNC(N)=O)NC(=O)[C@@H](Cc2ccc(O)cc2)NC(=O)[C@H](NC(=O)[C@@H](NC(=O)[C@H](CCCN=C(N)N)NC(=O)[C@@H](N)CCCN=C(N)N)c2ccc3ccccc3c2)CSSC[C@H](C(=O)N[C@@H](CCCN=C(N)N)C(=O)O)NC(=O)[C@H](CCCNC(N)=O)NC(=O)[C@H](CCCN=C(N)N)NC(=O)[C@H](Cc2ccc(O)cc2)NC(=O)[C@H]2CCCN2C(=O)[C@H](CCCNC(N)=O)NC1=O`, for which the values for the SI in experiment [1] and in experiment [2] were over 200 and over 1600, respectively.
Take `NCCCC[C@@H]1NC(=O)[C@@H](CCCCN)NC(=O)[C@H](CCCNC(N)=O)NC(=O)[C@@H](Cc2ccc(O)cc2)NC(=O)[C@H](NC(=O)[C@@H](NC(=O)[C@H](CCCN=C(N)N)NC(=O)[C@@H](N)CCCN=C(N)N)c2ccc3ccccc3c2)CSSC[C@H](C(=O)N[C@@H](CCCN=C(N)N)C(N)=O)NC(=O)[C@H](CCCNC(N)=O)NC(=O)[C@H](CCCNC(N)=O)NC(=O)[C@H](Cc2ccc(O)cc2)NC(=O)[C@H]2CCCN2C1=O`: the figures for the SI in experiment [1] and in experiment [2] were over 15 and over 59, respectively.
Consider `NCCCC[C@@H]1NC(=O)[C@@H](CCCCN)NC(=O)[C@H](CCCN=C(N)N)NC(=O)[C@@H](Cc2ccc(O)cc2)NC(=O)[C@H](NC(=O)[C@@H](NC(=O)[C@H](CCCN=C(N)N)NC(=O)[C@@H](N)CCCNC(N)=O)c2ccc3ccccc3c2)CSSC[C@H](C(=O)N[C@@H](CCCN=C(N)N)C(N)=O)NC(=O)[C@H](CCCNC(N)=O)NC(=O)[C@H](CCCNC(N)=O)NC(=O)[C@H](Cc2ccc(O)cc2)NC(=O)[C@H]2CCCN2C1=O`, for which the SI was over 2.5 in experiment [1] and 12 in experiment [2].
Turning to `NCCCC[C@@H]1NC(=O)[C@@H](CCCCN)NC(=O)[C@H](CCCNC(N)=O)NC(=O)[C@@H](Cc2ccc(O)cc2)NC(=O)[C@H](NC(=O)[C@@H](NC(=O)[C@H](CCCN=C(N)N)NC(=O)[C@@H](N)CCCNC(N)=O)c2ccc3ccccc3c2)CSSC[C@H](C(=O)N[C@@H](CCCN=C(N)N)C(N)=O)NC(=O)[C@H](CCCNC(N)=O)NC(=O)[C@H](CCCN=C(N)N)NC(=O)[C@H](Cc2ccc(O)cc2)NC(=O)[C@H]2CCCN2C1=O`, the SI is over 15 in experiment [1] and 53 in experiment [2].
Take `NCCCC[C@H]1NC(=O)[C@H](CCCN=C(N)N)NC(=O)[C@@H](Cc2ccc(O)cc2)NC(=O)[C@H](NC(=O)[C@@H](NC(=O)[C@H](CCCN=C(N)N)NC(=O)[C@@H](N)CCCNC(N)=O)c2ccc3ccccc3c2)CSSC[C@H](C(=O)N[C@@H](CCCN=C(N)N)C(=O)O)NC(=O)[C@H](CCCNC(N)=O)NC(=O)[C@H](CCCN=C(N)N)NC(=O)[C@H](Cc2ccc(O)cc2)NC(=O)[C@H]2CCCN2C(=O)[C@H](CCCNC(N)=O)NC1=O`: the SI in experiment [1] is over 2.8; in experiment [2], over 22.
The matching figures for `NCCCC[C@H]1NC(=O)[C@H](CCCN=C(N)N)NC(=O)[C@@H](Cc2ccc(O)cc2)NC(=O)[C@H](NC(=O)[C@@H](NC(=O)[C@H](CCCN=C(N)N)NC(=O)[C@@H](N)CCCN=C(N)N)c2ccc3ccccc3c2)CSSC[C@H](C(=O)N[C@@H](CCCN=C(N)N)C(N)=O)NC(=O)[C@H](CCCNC(N)=O)NC(=O)[C@H](CCCNC(N)=O)NC(=O)[C@H](Cc2ccc(O)cc2)NC(=O)[C@H]2CCCN2C(=O)[C@H](CCCNC(N)=O)NC1=O`: over 37 and 250.
Taken in the same sequence, the figures for `NCCCC[C@@H]1NC(=O)[C@@H](CCCCN)NC(=O)[C@H](CCCNC(N)=O)NC(=O)[C@@H](Cc2ccc(O)cc2)NC(=O)[C@H](NC(=O)[C@@H](NC(=O)[C@H](CCCN=C(N)N)NC(=O)[C@@H](N)CCCN=C(N)N)c2ccc3ccccc3c2)CSSC[C@H](C(=O)N[C@@H](CCCN=C(N)N)C(N)=O)NC(=O)[C@H](CCCNC(N)=O)NC(=O)[C@H](CCCN=C(N)N)NC(=O)[C@H](Cc2ccc(O)cc2)NC(=O)[C@H]2CCCN2C1=O` were over 170 and 680.
Taken in the same sequence, the figures for `NCCCC[C@H]1NC(=O)[C@H](CCCN=C(N)N)NC(=O)[C@@H](Cc2ccc(O)cc2)NC(=O)[C@H](NC(=O)[C@@H](NC(=O)[C@H](CCCN=C(N)N)NC(=O)[C@@H](N)CCCNC(N)=O)c2ccc3ccccc3c2)CSSC[C@H](C(=O)N[C@@H](CCCN=C(N)N)C(N)=O)NC(=O)[C@H](CCCNC(N)=O)NC(=O)[C@H](CCCN=C(N)N)NC(=O)[C@H](Cc2ccc(O)cc2)NC(=O)[C@H]2CCCN2C(=O)[C@H](CCCNC(N)=O)NC1=O` were over 83 and 420.
As for `NCCCC[C@H]1NC(=O)[C@H](CCCN=C(N)N)NC(=O)[C@@H](Cc2ccc(O)cc2)NC(=O)[C@H](NC(=O)[C@@H](NC(=O)[C@H](CCCN=C(N)N)NC(=O)[C@@H](N)CCCN=C(N)N)c2ccc3ccccc3c2)CSSC[C@H](C(=O)N[C@@H](CCCN=C(N)N)C(=O)O)NC(=O)[C@H](CCCNC(N)=O)NC(=O)[C@H](CCCN=C(N)N)NC(=O)[C@H](Cc2ccc(O)cc2)NC(=O)[C@H]2CCCN2C(=O)[C@H](CCCNC(N)=O)NC1=O`, the figures for the SI in experiment [1] and in experiment [2] were over 20 and 28, respectively.
Taken in the same sequence, the figures for `NCCCC[C@H]1NC(=O)[C@H](CCCN=C(N)N)NC(=O)[C@@H](Cc2ccc(O)cc2)NC(=O)[C@H](NC(=O)[C@@H](NC(=O)[C@H](CCCN=C(N)N)NC(=O)[C@@H](N)CCCN=C(N)N)c2ccc3ccccc3c2)CSSC[C@H](C(=O)N[C@@H](CCCN=C(N)N)C(N)=O)NC(=O)[C@H](CCCNC(N)=O)NC(=O)[C@H](CCCN=C(N)N)NC(=O)[C@H](Cc2ccc(O)cc2)NC(=O)[C@H]2CCCN2C(=O)[C@H](CCCNC(N)=O)NC1=O` were over 22 and 21.
For `NCCCC[C@@H]1NC(=O)[C@H](CCCN=C(N)N)NC(=O)[C@H](Cc2ccc(O)cc2)NC(=O)[C@@H](NC(=O)[C@@H](NC(=O)[C@H](CCCN=C(N)N)NC(=O)[C@@H](N)CCCN=C(N)N)c2ccc3ccccc3c2)CSSC[C@@H](C(=O)N[C@@H](CCCN=C(N)N)C(=O)O)NC(=O)[C@H](CCCNC(N)=O)NC(=O)[C@H](CCCN=C(N)N)NC(=O)[C@H](Cc2ccc(O)cc2)NC(=O)[C@@H]2CCCN2C(=O)[C@@H](CCCCN)NC1=O`, the results for the half-maximal cytotoxic concentration (CC50) in the experiment on MT4 [3] and in the experiment with PBMC (Homo sapiens) were over 1000 nM and 59 µM, respectively.
Turning to `NCCCC[C@@H]1NC(=O)[C@@H](CCCCN)NC(=O)[C@H](CCCNC(N)=O)NC(=O)[C@@H](Cc2ccc(O)cc2)NC(=O)[C@H](NC(=O)[C@@H](NC(=O)[C@H](CCCN=C(N)N)NC(=O)[C@@H](N)CCCN=C(N)N)c2ccc3ccccc3c2)CSSC[C@H](C(=O)N[C@@H](CCCN=C(N)N)C(=O)O)NC(=O)[C@H](CCCNC(N)=O)NC(=O)[C@H](CCCN=C(N)N)NC(=O)[C@H](Cc2ccc(O)cc2)NC(=O)[C@H]2CCCN2C1=O`, the SI in experiment [1] was over 29; in experiment [2], 180.
Turning to `NCCCC[C@@H]1NC(=O)[C@@H](CCCCN)NC(=O)[C@H](CCCNC(N)=O)NC(=O)[C@@H](Cc2ccc(O)cc2)NC(=O)[C@H](NC(=O)[C@@H](NC(=O)[C@H](CCCN=C(N)N)NC(=O)[C@@H](N)CCCNC(N)=O)c2ccc3ccccc3c2)CSSC[C@H](C(=O)N[C@@H](CCCN=C(N)N)C(=O)O)NC(=O)[C@H](CCCNC(N)=O)NC(=O)[C@H](CCCN=C(N)N)NC(=O)[C@H](Cc2ccc(O)cc2)NC(=O)[C@H]2CCCN2C1=O`, the SI in experiment [1] is over 2.7; in experiment [2], 22.
`Cc1cn([C@H]2C[C@H](N=[N+]=[N-])[C@@H](CO)O2)c(=O)[nH]c1=O` [ZIDOVUDINE] displayed a CC50 in the experiment on MT4 [4] of 12 µM. Moreover, the SI in experiment [1] was determined as 1.5. For the same compound, the negative logarithm of the EC50 (pEC50) in experiment [5] is 8.10.
In the case of `NCCCC[C@@H]1NC(=O)[C@@H](CCCCN)NC(=O)[C@H](CCCN=C(N)N)NC(=O)[C@@H](Cc2ccc(O)cc2)NC(=O)[C@H](NC(=O)[C@@H](NC(=O)[C@H](CCCN=C(N)N)NC(=O)[C@@H](N)CCCN=C(N)N)c2ccc3ccccc3c2)CSSC[C@H](C(=O)N[C@@H](CCCN=C(N)N)C(=O)O)NC(=O)[C@H](CCCNC(N)=O)NC(=O)[C@H](CCCN=C(N)N)NC(=O)[C@H](Cc2ccc(O)cc2)NC(=O)[C@H]2CCCN2C1=O`, the figures for the SI in experiment [6] and in experiment [7] were over 0.3 and 18, respectively.
As to `NCCCC[C@H]1NC(=O)[C@H](CCCNC(N)=O)NC(=O)[C@@H](Cc2ccc(O)cc2)NC(=O)[C@H](NC(=O)[C@@H](NC(=O)[C@H](CCCN=C(N)N)NC(=O)[C@@H](N)CCCN=C(N)N)c2ccc3ccccc3c2)CSSC[C@H](C(=O)N[C@@H](CCCN=C(N)N)C(N)=O)NC(=O)[C@H](CCCNC(N)=O)NC(=O)[C@H](CCCN=C(N)N)NC(=O)[C@H](Cc2ccc(O)cc2)NC(=O)[C@H]2CCCN2C(=O)[C@H](CCCNC(N)=O)NC1=O`, the SI is over 250 in experiment [1] and over 2000 in experiment [2].
